These results are taken from PubChem BioAssay AID624372 (Broad Institute, 2012).

Assay [1] can be described thus: cytotoxicity in untransfected HEK293T cells – cell-based, CellTiter-Glo luminescence, dry powder, counter-screen for EBV LMP1 inhibitor project, dose response (AID 624372). The settings on record: HEK293T viability, CellTiter-Glo ATP luminescence, 48 h.
The subject of assay [2] is HEK293T viability, CellTiter-Glo ATP luminescence, 48 h. The assay is described as above.

Inconclusive results are not listed. Activity calls are given as the source filed them.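 How the source made its calls: active means fitted curve reaches -35% activity change below twice the top valid dose, with every replicate test called active; inconclusive means replicate tests disagree on the call; inactive means every replicate test called inactive.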

Turning to `C=C1C[C@]23C[C@@]1(O)CC[C@H]2[C@@]12C=C[C@H](O)[C@@](C)(C(=O)O1)[C@H]2[C@@H]3C(=O)O`, in assay [1] (at 15 µM (top of the series)), the activity change, negative = cytotoxicity was 15.6% (inactive).

For `C/C(=N\NC(=S)Nc1cccc(C)c1)c1ccccn1`, the activity change, negative = cytotoxicity in assay [1] (at 19.5 µM (top of the series)) was -10.2% (inactive).

With `c1ccc(-c2cn3c4c(sc3n2)CCCC4)cc1`, the activity change, negative = cytotoxicity in assay [1] (at 26 µM (top of the series)) was 3.96% (inactive).

Regarding `C/C(=N\NC(=S)N1CC2CCC(CC2)C1)c1ccncn1`, in assay [1] (at 10 µM (top of the series)), the activity change, negative = cytotoxicity was 18.8% (inactive).

In the case of `C/C(=N\NC(=S)N1CC2CCC(CC2)C1)c1cccc(C)n1`, in assay [2], the AC35 is 2.02 µM.

With `Cc1ccc(S(=O)(=O)Nc2ccc3c(c2)C(=O)N([C@@H](C)CO)C[C@H](C)[C@@H](CN(C)C(=O)CCC(F)(F)F)OCCCC[C@H](C)O3)cc1`, in assay [1] (at 26 µM (top of the series)), the activity change, negative = cytotoxicity was 0.533% (inactive).

As for `CC(=O)Nc1nc(C)c(-c2csc(Nc3ccc(O)cc3)n2)s1`, in assay [1] (at 26 µM (top of the series)), the activity change, negative = cytotoxicity was 2.53% (inactive).

For the molecule `Oc1cccc(C(Nc2nccs2)c2ccc3cccnc3c2O)c1` (centres undefined), the activity change, negative = cytotoxicity in assay [1] (at 26 µM (top of the series)) is 4.52% (inactive).

With `C[C@@H]1CCCCO[C@H](CN(C)C(=O)CCC(F)(F)F)[C@H](C)CN([C@@H](C)CO)C(=O)c2cc(NC(=O)CCC(F)(F)F)ccc2O1`, the activity change, negative = cytotoxicity in assay [1] (at 26 µM (top of the series)) is -7.41% (inactive).

For the molecule `C/C(=N\NC(=S)N1CCCC1)c1ccccn1`, the AC35 in assay [2] is 11 µM.

Consider `O=c1[nH]c(=O)n([C@H]2C[C@H](O)[C@@H](CO)O2)cc1C(F)(F)F`, for which the AC35 in assay [2] is 27.4 µM.

For the molecule `CC1=C(C(=O)OCc2ccc3c(c2)OCO3)C(c2ccc(F)cc2)NC(=O)N1` (centres undefined), in assay [1] (at 26 µM (top of the series)), the activity change, negative = cytotoxicity was 1.04% (inactive).

Regarding `CC12CCC3C(CC=C4CC(O)CCC43CO)C1CCC2OC(=O)c1ccccc1` (centres undefined), the activity change, negative = cytotoxicity in assay [1] (at 26 µM (top of the series)) is -2.56% (inactive).

As to `O=C(CCc1ccccc1)NC(c1cccs1)c1cc(Cl)c2cccnc2c1O` (centres undefined), in assay [1] (at 26 µM (top of the series)), the activity change, negative = cytotoxicity is 6.13% (inactive).

For the molecule `CCN1CCN(C(c2cccnc2)c2cc(Cl)c3cccnc3c2O)CC1` (centres undefined), the activity change, negative = cytotoxicity in assay [1] (at 26 µM (top of the series)) was 14% (inactive).

On to `Cc1ccc(NC(=O)C2CCN(S(=O)(=O)c3ccc4c(c3)NC(=O)C(C)S4)CC2)cc1Cl` (centres undefined), for which the activity change, negative = cytotoxicity in assay [1] (at 26 µM (top of the series)) is 44.9% (inactive).

With `C[C@@H]1CN([C@@H](C)CO)C(=O)c2cc(NC(=O)Nc3ccc4c(c3)OCO4)ccc2O[C@H]1CN(C)CC1CCCCC1`, the activity change, negative = cytotoxicity in assay [1] (at 26 µM (top of the series)) was -4.73% (inactive).

Take `C/C(=N\NC(=S)Nc1cccc(Cl)c1)c1ccccn1`: the AC35 in assay [2] was 16.2 µM.

For `C[C@@H]1CCCCO[C@H](CN(C)CC2CCCCC2)[C@H](C)CN([C@@H](C)CO)C(=O)c2cc(NC(=O)NC3CCCCC3)ccc2O1`, the activity change, negative = cytotoxicity in assay [1] (at 26 µM (top of the series)) is 4.75% (inactive).

For the molecule `C[C@@H]1CN([C@@H](C)CO)C(=O)c2cc(NC(=O)Nc3ccc(C(F)(F)F)cc3)ccc2O[C@@H](C)CCCCO[C@H]1CN(C)Cc1ccc(C(F)(F)F)cc1`, in assay [1] (at 26 µM (top of the series)), the activity change, negative = cytotoxicity was -3.84% (inactive).

Take `Cc1c(NC(=O)c2cccc(NC(=O)COc3ccccc3C#N)c2)c(=O)n(-c2ccccc2)n1C`: the AC35 in assay [2] is 24.4 µM.

On to `C=C1C[C@]23C[C@@]1(O)CC[C@@H]2c1cccc(C)c1[C@@H]3C(=O)O`, for which, in assay [2], the AC35 was 7.6 µM.

`COc1ccc(NC(=O)c2ccc(OC(C)C(=O)O)cc2)cc1Cl` (centres undefined): the AC35 in assay [2] was 37.6 µM.

Consider `COc1ccc(C(=O)Nc2ccc3[nH]ccc3c2)cc1`, for which the activity change, negative = cytotoxicity in assay [1] (at 26 µM (top of the series)) is 12.8% (inactive).

For the molecule `COc1ccc(-c2csc3ncnc(NCCN4CCOCC4)c23)cc1`, in assay [1] (at 26 µM (top of the series)), the activity change, negative = cytotoxicity is 7.09% (inactive).

For `Cc1cc(NC(=O)c2ccc3c(c2)OCCO3)no1`, the activity change, negative = cytotoxicity in assay [1] (at 26 µM (top of the series)) was 6.92% (inactive).

For `C/C=C/C/C=C/CCC(=O)[C@H]1O[C@H]1C(N)=O`, in assay [2], the AC35 was 18.3 µM.

Turning to `O=c1[nH]c(Nc2nc3ccccc3o2)nc2c1CCCC2`, the activity change, negative = cytotoxicity in assay [1] (at 26 µM (top of the series)) is -4.82% (inactive).

On to `C[C@@H]1CCCCO[C@H](CN(C)C(=O)NC2CCCCC2)[C@H](C)CN([C@@H](C)CO)C(=O)c2cc(NC(=O)C3CCCCC3)ccc2O1`, for which the activity change, negative = cytotoxicity in assay [1] (at 26 µM (top of the series)) was 3.97% (inactive).

`CSc1nc(-c2ccc(C)cc2)nc(C(Cl)Cl)n1`: the activity change, negative = cytotoxicity in assay [1] (at 26 µM (top of the series)) is 1.77% (inactive).

Regarding `CNC[C@@H]1Oc2ccc(NS(=O)(=O)c3cn(C)cn3)cc2CC(=O)N([C@H](C)CO)C[C@@H]1C`, the activity change, negative = cytotoxicity in assay [1] (at 26 µM (top of the series)) is -4.73% (inactive).

For `C[C@@H]1CCCCO[C@H](CN(C)S(=O)(=O)c2ccccc2)[C@@H](C)CN([C@@H](C)CO)C(=O)c2cc(N(C)C)ccc2O1`, in assay [1] (at 26 µM (top of the series)), the activity change, negative = cytotoxicity was 16.8% (inactive).

For the molecule `CSC(=S)N/N=C(\C)c1cccc(C)n1`, the activity change, negative = cytotoxicity in assay [1] (at 19.5 µM (top of the series)) was 17.8% (inactive).

As for `C[C@@H]1CN([C@@H](C)CO)C(=O)c2cc(NC(=O)Nc3ccc(C(F)(F)F)cc3)ccc2O[C@@H](C)CCCCO[C@@H]1CN(C)CC1CCCCC1`, the AC35 in assay [2] was 62.9 µM.

As to `COc1ccc2[nH]c(C(=O)N/N=C/c3ccc(O)cc3O)cc2c1`, in assay [1] (at 26 µM (top of the series)), the activity change, negative = cytotoxicity is 3.87% (inactive).

`Fc1ccc2c(c1)c1nnc(SCCN3CCOCC3)nc1n2Cc1ccccc1`: the AC35 in assay [2] was 16.9 µM.

`Cc1ccnc(NC(=O)c2ccc(C(=O)c3ccccc3)cc2)c1`: the AC35 in assay [2] was 72 µM.

With `COCCCNC(=O)C(C)Sc1nnc2c3cc(C)ccc3n(Cc3ccccc3F)c2n1` (centres undefined), the AC35 in assay [2] was 56 µM.

Take `COc1ccc(-c2cc3nc4n(c(=O)c3s2)CCC4)cc1`: in assay [1] (at 26 µM (top of the series)), the activity change, negative = cytotoxicity is 3.13% (inactive).

For the molecule `c1ccc(Cn2c3ccccc3c3nnc(SCCN4CCCCC4)nc32)cc1`, the activity change, negative = cytotoxicity in assay [1] (at 26 µM (top of the series)) is -15% (inactive).

As to `COc1ccc2nc(Nc3nc(C)c(CCC(C)C)c(=O)[nH]3)nc(C)c2c1`, the activity change, negative = cytotoxicity in assay [1] (at 26 µM (top of the series)) was 4.99% (inactive).

`C=CCN1Cc2ccccc2[C@@H]2OC(c3ccc(OCCCO)cc3)=N[C@]2(CCC(=O)OC(C)(C)C)C1=O`: the activity change, negative = cytotoxicity in assay [1] (at 26 µM (top of the series)) is 6.61% (inactive).

Turning to `C[C@@H]1CCCCO[C@H](CN(C)C(=O)c2ccccc2)[C@H](C)CN([C@@H](C)CO)C(=O)c2cc(NC(=O)Nc3ccc(F)cc3)ccc2O1`, the activity change, negative = cytotoxicity in assay [1] (at 26 µM (top of the series)) was 5.32% (inactive).

As for `S=C(N/N=C(\c1ccccc1)c1ccccn1)N(Cc1ccccn1)Cc1ccccn1`, in assay [1] (at 19.5 µM (top of the series)), the activity change, negative = cytotoxicity is 8.82% (inactive).

In the case of `CCc1ccc(/C=C2\SC(=S)N(CCCC(=O)Nc3ccccn3)C2=O)cc1`, in assay [1] (at 26 µM (top of the series)), the activity change, negative = cytotoxicity is 1.67% (inactive).

In the case of `S=C(NCc1ccccn1)N/N=C/c1ccccn1`, the AC35 in assay [2] was 29.6 µM.

`O=C(Nc1cc(C(F)(F)F)cc(C(F)(F)F)c1)Nc1cnn(-c2ccc([N+](=O)[O-])cc2)c1C(F)(F)F`: the activity change, negative = cytotoxicity in assay [1] (at 26 µM (top of the series)) was 5.06% (inactive).

As for `Cc1ccc(S(=O)(=O)NC(CC(C)C)C(=O)NCC(c2ccco2)N2CCCCC2)cc1` (centres undefined), the activity change, negative = cytotoxicity in assay [1] (at 26 µM (top of the series)) was 2.47% (inactive).

On to `C/C(=N\NC(=S)N1CCCCC1)c1cccc(C)n1`, for which the AC35 in assay [2] is 0.785 µM.

For the molecule `C/C(=N\NC(=S)N1CCCCC1)c1ccccn1`, the AC35 in assay [2] is 10.9 µM.

`C[C@H](CO)N1C[C@H](C)[C@@H](CN(C)CC2CC2)OCCCC[C@H](C)Oc2ccc(NC(=O)Nc3cccc4ccccc34)cc2C1=O`: the activity change, negative = cytotoxicity in assay [1] (at 26 µM (top of the series)) was 33.4% (inactive).

As for `CCC(Sc1nnc2c3ccccc3n(Cc3ccc(Br)cc3)c2n1)C(=O)NCCCN1CCOCC1` (centres undefined), the AC35 in assay [2] is 21.2 µM.

On to `C/C(=N\NC(=S)N1CCN(c2ccccn2)CC1)c1ccccn1`, for which the AC35 in assay [2] is 11.3 µM.

For the molecule `C[C@H](CO)N1C[C@H](C)[C@H](CN(C)C(=O)Nc2ccc(C(F)(F)F)cc2)OCCCC[C@H](C)Oc2ccc(NC(=O)Nc3ccc(F)cc3)cc2C1=O`, the AC35 in assay [2] was 48.2 µM.

As to `CC1CN(C(=O)CSc2nnc3c4ccccc4n(Cc4cccc(Cl)c4)c3n2)CCN1C(=O)c1ccccc1F` (centres undefined), the activity change, negative = cytotoxicity in assay [1] (at 26 µM (top of the series)) was 19.4% (inactive).

Consider `O=C(CSc1nnc2c3ccccc3n(Cc3ccccc3)c2n1)NCc1ccco1`, for which the activity change, negative = cytotoxicity in assay [1] (at 26 µM (top of the series)) is -2.78% (inactive).

Turning to `CCc1ccc(/C=C/C(=O)C2C(=O)c3ccccc3C2=O)cc1`, the activity change, negative = cytotoxicity in assay [1] (at 26 µM (top of the series)) is 1.92% (inactive).

Consider `C[C@@H]1CCCCO[C@@H](CN(C)Cc2ccccc2)[C@H](C)CN([C@H](C)CO)C(=O)c2cc(NC(=O)Nc3ccc4c(c3)OCO4)ccc2O1`, for which, in assay [1] (at 26 µM (top of the series)), the activity change, negative = cytotoxicity is 1.15% (inactive).

As to `COc1ccccc1[C@]1(C)ON(c2ccccc2C(F)(F)F)C1=O`, in assay [1] (at 26 µM (top of the series)), the activity change, negative = cytotoxicity is 21.8% (inactive).

On to `COc1ccccc1NC(=S)N/N=C(\C)c1ccccn1`, for which the activity change, negative = cytotoxicity in assay [1] (at 19.5 µM (top of the series)) was 3.97% (inactive).

On to `CCn1c2ccccc2c2cc(/C=N/n3cnnc3)ccc21`, for which, in assay [1] (at 26 µM (top of the series)), the activity change, negative = cytotoxicity is 12.2% (inactive).

Take `C/C(=N\NC(=S)N1CC2CCC(CC2)C1)c1cnccn1`: the AC35 in assay [2] is 7.95 µM.

For the molecule `COc1cccc(/C=N/Nc2ncnc3c2ncn3Cc2ccccc2)c1O`, in assay [1] (at 26 µM (top of the series)), the activity change, negative = cytotoxicity was 15.7% (inactive).

As to `O=C1/C(=C/c2ccncc2)SC(=S)N1Cc1ccccc1`, the activity change, negative = cytotoxicity in assay [1] (at 26 µM (top of the series)) was 7.62% (inactive).
